Here are results for 14 molecules from patent publication US6372774B1, “Derivatives of N-phenylpyrazoles” (Rhone-Poulenc Agriculture Ltd., priority 1985, dated 2002).

In the first series the test system is Periplaneta americana. Briefly: Test 5: injection into cockroaches. The settings on record: dose of 5 micrograms/g insect body weight, injected in acetone; five days after treatment. Type of series: in vivo. The method, then: 0.2 microliters of an acetone solution of the compound was injected through the soft cuticle between the leg and thorax of ten insects, to give a dose rate of 5 micrograms per g of insect body weight. Ten cockroaches were similarity injected with 0.2 microliters of acetone alone to serve as controls. After treatment the insects were held in plastic boxes with appropriate food. Five days after treatment the numbers of dead and alive insects were counted and percentage mortalities calculated.
In the case of `N#Cc1nn(-c2c(Cl)cc(C(F)(F)F)cc2Cl)c(N)c1C#N` [Compound 110, 5-Amino-1-(2,6-dichloro-4-trifluoromethylphenyl)-3,4-dicyanopyrazole], the “mortality of Periplaneta americana” value is 100%.

As for `N#Cc1nn(-c2c(Cl)cc(C(F)(F)F)cc2Cl)c(NC(=O)C2CC2)c1C#N` [Compound 122, 5-Cyclopropylcarbonamido-1-(2,6-dichloro-4-trifluoromethylphenyl)-3,4-dicyanopyrazole], the “mortality of Periplaneta americana” value is on record as 100%.

On to `N#Cc1nn(-c2ccc(C(F)(F)F)cc2Cl)c(N)c1C#N` [Compound 125, 5-Amino-1-(2-chloro-4-trifluoromethylphenyl)-3,4-dicyanopyrazole], for which the “mortality of Periplaneta americana” value is on record as 100%.

The subject of another series is Phaedon cochleariae (Mustard Beetle). The experiment in a line: Test 3 a): leaf disc spray test, Phaedon cochleariae larvae. Type of series: in vivo. The following applies: Phaedon cochleariae, foliar, read-out: Phaedon % m 10 ppm. The essentials:
(§1)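 Compounds were diluted in 50% aqueous acetone and sprayed in a Potter Tower onto turnip leaf discs in agar, each infested with 10 larvae (2nd instar Plutella, 3rd instar Phaedon), with four replicates per treatment. Mean percentage larval mortality was scored 4–5 days later at 25 °C.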
For `N#Cc1nn(-c2c(Cl)cc(C(F)(F)F)cc2Cl)c(N)c1C#N` [Compound 110, 5-Amino-1-(2,6-dichloro-4-trifluoromethylphenyl)-3,4-dicyanopyrazole], the pest or weed control at 10 ppm was determined as 100%.

For another series, the system named is Megoura viciae (Vetch Aphid). The experiment in a line: Test 1(b): spray of infested tic bean plants, Megoura viciae. The settings on record: at 50 ppm, 2 days, score 0-3 per replicate, 4 replicates (maximum 12). Type of series: in vivo. Here is the method: One or more dilutions of the compounds to be tested were made in 50% aqueous acetone.
(b) Megoura viciae (Vetch Aphid)
Potted tic bean plants previously infected with mixed stages of Megoura were sprayed to run-off using a laboratory turntable sprayer. Treated plants were held in a greenhouse for 2 days and were assessed for aphid mortality using a scoring system, judging the response in comparison with plants treated with 50% aqueous acetone alone, as controls. Each treatment was replicated 4 times.
On to `CCCSc1c(C#N)nn(-c2c(Cl)cc(C(F)(F)F)cc2Cl)c1N` [Compound 71, 5-Amino-3-cyano-1-(2,6-dichloro-4-trifluoromethylphenyl)-4-propylthiopyrazole], for which the “score against all stages of Megoura viciae” value (from here on “score against all stages”) was 7/12.

As for `CC(C)Sc1c(C#N)nn(-c2c(Cl)cc(C(F)(F)F)cc2Cl)c1N` [Compound 72, 5-Amino-3-cyano-1-(2,6-dichloro-4-trifluoromethylphenyl)-4-isopropylthiopyrazole], the “score against all stages” value is reported as 7/12.

Turning to `CC(C)CSc1c(C#N)nn(-c2c(Cl)cc(C(F)(F)F)cc2Cl)c1N` [Compound 73, 5-Amino-3-cyano-1-(2,6-dichloro-4-trifluoromethylphenyl)-4-(2-methylpropylthio)pyrazole], the “score against all stages” value is 7/12.

In the case of `CCC(C)Sc1c(C#N)nn(-c2c(Cl)cc(C(F)(F)F)cc2Cl)c1N` (stereo not shown) [Compound 74, 5-Amino-3-cyano-1-(2,6-dichloro-4-trifluoromethylphenyl)-4-(1-methylpropylthio)pyrazole], the “score against all stages” value is 7/12.

As for `C=CCSc1c(C#N)nn(-c2c(Cl)cc(C(F)(F)F)cc2Cl)c1N` [Compound 75, 4-Allylthio-5-amino-3-cyano-1-(2,6-dichloro-4-trifluoromethylphenyl)pyrazole], the “score against all stages” value was 7/12.

For another series, the system named is Plutella xylostella (Diamond-back Moth). The experiment in a line: whole plant or invertebrate. The class given is in vivo. The following applies: foliar, read-out: Plutella % m 500 ppm. The essentials:
as §1
`N#Cc1nn(-c2c(Cl)cc(C(F)(F)F)cc2Cl)c(N)c1C#N` [Compound 110, 5-Amino-1-(2,6-dichloro-4-trifluoromethylphenyl)-3,4-dicyanopyrazole]: the pest or weed control at 500 ppm turned out to be 89%.

The subject of the next series is Spodoptera littoralis (Egyptian Cotton Worm). Briefly: Test 2: leaf disc spray test, Spodoptera littoralis larvae. Type of series: in vivo. The following applies: foliar, application of 500 ppm, 2nd instar larvae on French bean leaf discs, sprayed. The text has this:
One or more of the dilutions of the compounds to be tested were made in 50% aqueous acetone.
Test species: Spodoptera littoralis (Egyptian Cotton Worm)
French bean leaf discs were set in agar in petri dishes and infected with 5 2nd instar larvae. Four replicate dishes were assigned to each treatment and were sprayed under a Potter Tower with the appropriate test dilution. After 2 days, live larvae were transferred to similar dishes containing untreated leaves set in agar. Two or three days later, the dishes were removed from the constant temperature (25° C.) room in which they had been held and the mean percentage mortalities of larvae were determined.
In general, mortality refers to the share of the test organisms that died. The low end stands for more survivors, the high end for fewer survivors. The molecule `CC(=O)Nc1c([N+](=O)[O-])c(Br)nn1-c1c(Cl)cc(C(F)(F)F)cc1Cl` [Compound 102, 5-Acetamido-3-bromo-1-(2,6-dichloro-4-trifluoromethylphenyl)-4-nitropyrazole] came in with a mortality at 500 ppm of no less than 70%.

Turning to `CC(=O)Nc1c([N+](=O)[O-])c(Cl)nn1-c1c(Cl)cc(C(F)(F)F)cc1Cl` [Compound 103, 5-Acetamido-3-chloro-1-(2,6-dichloro-4-trifluoromethylphenyl)-4-nitropyrazole], the mortality at 500 ppm was no less than 70%.

In the case of `CC(=O)Nc1c([N+](=O)[O-])c(C#N)nn1-c1c(Cl)cc(C(F)(F)F)cc1Cl` [Compound 104, 5-Acetamido-3-cyano-1-(2,6-dichloro-4-trifluoromethylphenyl)-4-nitropyrazole], the mortality at 500 ppm is no less than 70%.

For the molecule `Nc1c([N+](=O)[O-])c(Br)nn1-c1c(Cl)cc(C(F)(F)F)cc1Cl` [Compound 105, 5-Amino-3-bromo-1-(2,6-dichloro-4-trifluoromethylphenyl)-4-nitropyrazole], the mortality at 500 ppm was no less than 70%.

`Nc1c([N+](=O)[O-])c(Cl)nn1-c1c(Cl)cc(C(F)(F)F)cc1Cl` [Compound 106, 5-Amino-3-chloro-1-(2,6-dichloro-4-trifluoromethylphenyl)-4-nitropyrazole] yielded a mortality at 500 ppm of no less than 70%.

Consider `N#Cc1nn(-c2c(Cl)cc(C(F)(F)F)cc2Cl)c(N)c1[N+](=O)[O-]` [Compound 107, 5-Amino-3-cyano-1-(2,6-dichloro-4-trifluoromethylphenyl)-4-nitropyrazole], for which the mortality at 500 ppm was no less than 70%.
